Experimental data as given in US7183299B2 (priority 2001, dated 2007).

Experiments:
[1] = tested on: late blight on tomato; type: in vivo, Plasmopara viticola; settings: tomato (Hofuku), therapeutic effect, sprayed after inoculation, active ingredient 100 ppm, disease severity 7 days after inoculation
[2] = tested on: downy mildew (Plasmopara viticola) on grape; settings: in vivo

Compound	Control value (%) [1]	Control value (%) [2]
Cc1nnnn1C(=NOCc1cccc(NC(=O)OC2CCCCC2)n1)c1ccccc1 [(13)-22]	100%	100%
CCCCOC(=O)Nc1nc(CON=C(c2ccccc2)n2nnnc2C)cs1 [(14)-5]	80%	70%
Cc1nnnn1C(=NOCc1csc(NC(=O)c2ccccc2)n1)c1ccccc1 [(16)-3]	80%	70%
CCCC(=O)Nc1cccc(CON=C(c2ccc(Cl)cc2)n2nnnc2C)n1 [(17)-1]	100%	100%
CCCC(=O)Nc1nc(CON=C(c2ccc(Cl)cc2)n2nnnc2C)cs1 [(18)-1]	100%	100%
Cc1nnnn1C(=NOCc1cccc(NC(=O)OC(C)(C)C)n1)c1cccc(F)c1 [(19)-1]	100%	100%
CCCCOC(=O)Nc1cccc(CON=C(c2cccc(F)c2)n2nnnc2C)n1 [(19)-11]	90%	80%
CCCCOC(=O)Nc1cccc(CON=C(c2ccc(F)cc2)n2nnnc2C)n1 [(19)-12]	100%	90%
CCCCOC(=O)Nc1cccc(CON=C(c2cccc(Cl)c2)n2nnnc2C)n1 [(19)-13]	100%	100%
CCCCOC(=O)Nc1cccc(CON=C(c2ccc(Cl)cc2)n2nnnc2C)n1 [(19)-14]	100%	80%
CCCCOC(=O)Nc1cccc(CON=C(c2ccc(C)cc2)n2nnnc2C)n1 [(19)-16]	100%	100%
CCCCOC(=O)Nc1cccc(CON=C(c2ccc(OC)cc2)n2nnnc2C)n1 [(19)-23]	80%	70%
CCCCOC(=O)Nc1cccc(CON=C(c2ccc(C#N)cc2)n2nnnc2C)n1 [(19)-25]	90%	90%
CCCCCOC(=O)Nc1cccc(CON=C(c2ccc(S(C)(=O)=O)cc2)n2nnnc2C)n1 [(19)-28]	100%	100%
CCCCOC(=O)Nc1cccc(CON=C(c2ccc([N+](=O)[O-])cc2)n2nnnc2C)n1 [(19)-29]	100%	80%
CCCCOC(=O)Nc1cccc(CON=C(c2ccc(C(F)(F)F)cc2)n2nnnc2C)n1 [(19)-31]	100%	90%
CCCCOC(=O)Nc1cccc(CON=C(c2ccccc2)n2nnnc2C)n1 [(19)-33]	100%	100%
CCCCOC(=O)Nc1cccc(CON=C(c2ccc(CC)cc2)n2nnnc2C)n1 [(19)-34]	100%	80%
CCCCOC(=O)Nc1cccc(CON=C(c2ccc(C(C)(C)C)cc2)n2nnnc2C)n1 [(19)-35]	80%	70%
Cc1nnnn1C(=NOCc1csc(NC(=O)OC(C)(C)C)n1)c1cccc(F)c1 [(20)-1]	80%	70%
(Z)-(1-methyltetrazol-5-yl)phenylmethanoneoxime 0-(2-(n-pentyloxycarbonylamino)thiazol-4-yl)methyloxime [(4)-9]	100%	80%
